Assay results reported in patent US10597388B2, “Pyridazinone herbicides” (FMC CORPORATION, priority 2014, dated 2020).

What was measured:
Assay in all cases: Test D controlled growth environment herbicide test, pre- and postemergence
Format in all cases: in vivo
[1] = tested on: Russian thistle (Salsola kali)
Outline: (§1)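 Pre-emergence: seeds sown in silt loam soil were sprayed with compound in a non-phytotoxic solvent mix containing surfactant. Post-emergence: plants at 2 to 18 cm (1- to 4-leaf stage) in peat moss/vermiculite medium got the same formulation. Visual 0–100 rating versus controls after 14 to 21 d.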

[2] = tested on: barley, spring (spring barley, Hordeum vulgare)
Outline: as §1

[3] = tested on: bluegrass (annual bluegrass, Poa annua)
Outline: as §1

[4] = tested on: deadnettle (henbit deadnettle, Lamium amplexicaule)
Outline: as §1

[5] = tested on: field violet (Viola arvensis)
Outline: as §1

[6] = tested on: foxtail, green (green foxtail, Setaria viridis)
Outline: as §1

kochia (Kochia scoparia) = tested on: kochia (Kochia scoparia)
Outline: as §1

[7] = tested on: mustard, wild (wild mustard, Sinapis arvensis)
Outline: as §1

[8] = tested on: oat, wild (wild oat, Avena fatua)
Outline: as §1

[9] = tested on: pigweed (Amaranthus retroflexus)
Outline: as §1

[10] = tested on: wheat, spring (spring wheat, Triticum aestivum)
Outline: as §1

[11] = tested on: wheat, winter (winter wheat, Triticum aestivum)
Outline: as §1

[12] = tested on: windgrass (Apera spica-venti)
Outline: as §1

[13] = Postemergence, 31 g ai/ha, scale 0 to 100 (0 no effect, 100 complete control)
[14] = Postemergence, 125 g ai/ha, visual rating on scale 0 (no effect) to 100 (complete control), 14 to 21 d
[15] = Postemergence, 250 g ai/ha, scale 0 to 100 (0 no effect, 100 complete control)
[16] = Preemergence, 62 g ai/ha, scale 0 to 100 (0 no effect, 100 complete control)
[17] = Preemergence, 125 g ai/ha, scale 0 to 100 (0 no effect, 100 complete control)
[18] = Preemergence, 250 g ai/ha, scale 0 to 100 (0 no effect, 100 complete control)
[19] = postemergence, 62 g ai/ha, scale 0 to 100, 0 no effect, 100 complete control

## COc1nn(C)c(=O)c(-c2c(C)ccc3ccccc23)c1O [Compound 54]
[1]; [13]
  Russian Thistle plant response rating: 80
[1]; [14]
  Plant response rating, Russian Thistle: 90
[1]; [15]
  Plant response rating, Russian Thistle: 100
[1]; Preemergence, 31 g ai/ha
  Plant response rating (scale of 0 to 100), Russian Thistle: 0
[1]; [16]
  Plant response rating, Russian Thistle: 0
[1]; [17]
  Plant response rating, Russian Thistle: 25
[1]; [18]
  Plant response rating, Russian Thistle: 35
[1]; [19]
  Plant response rating, Russian Thistle: 80
[2]; [13]
  Barley, Spring plant response rating: 0
[2]; [14]
  Plant response rating, Barley, Spring: 0
[2]; [15]
  Plant response rating, Barley, Spring: 10
[2]; Preemergence, 31 g ai/ha
  Plant response rating (scale of 0 to 100), Barley, Spring: 0
[2]; [16]
  Plant response rating, Barley, Spring: 0
[2]; [17]
  Plant response rating, Barley, Spring: 0
[2]; [18]
  Plant response rating, Barley, Spring: 5
[2]; [19]
  Plant response rating, Barley, Spring: 0
[3]; [13]
  Bluegrass plant response rating: 10
[3]; [14]
  Plant response rating, Bluegrass: 25
[3]; [15]
  Plant response rating, Bluegrass: 35
[3]; Preemergence, 31 g ai/ha
  Plant response rating (scale of 0 to 100), Bluegrass: 0
[3]; [16]
  Plant response rating, Bluegrass: 10
[3]; [17]
  Plant response rating, Bluegrass: 15
[3]; [18]
  Plant response rating, Bluegrass: 25
[3]; [19]
  Plant response rating, Bluegrass: 15
[4]; [13]
  Deadnettle plant response rating: 100
[4]; [14]
  Plant response rating, Deadnettle: 100
[4]; [15]
  Plant response rating, Deadnettle: 100
[4]; Preemergence, 31 g ai/ha
  Plant response rating (scale of 0 to 100), Deadnettle: 0
[4]; [16]
  Plant response rating, Deadnettle: 60
[4]; [17]
  Plant response rating, Deadnettle: 70
[4]; [18]
  Plant response rating, Deadnettle: 95
[4]; [19]
  Plant response rating, Deadnettle: 100
[5]; [13]
  Field Violet plant response rating: 85
[5]; [14]
  Plant response rating, Field Violet: 95
[5]; [15]
  Plant response rating, Field Violet: 90
[5]; Preemergence, 31 g ai/ha
  Plant response rating (scale of 0 to 100), Field Violet: 25
[5]; [16]
  Plant response rating, Field Violet: 35
[5]; [17]
  Plant response rating, Field Violet: 70
[5]; [18]
  Plant response rating, Field Violet: 95
[5]; [19]
  Plant response rating, Field Violet: 75
[6]; [13]
  Foxtail, Green plant response rating: 55
[6]; [14]
  Plant response rating, Foxtail, Green: 70
[6]; [15]
  Plant response rating, Foxtail, Green: 80
[6]; Preemergence, 31 g ai/ha
  Plant response rating (scale of 0 to 100), Foxtail, Green: 50
[6]; [16]
  Plant response rating, Foxtail, Green: 60
[6]; [17]
  Plant response rating, Foxtail, Green: 65
[6]; [18]
  Plant response rating, Foxtail, Green: 100
[6]; [19]
  Plant response rating, Foxtail, Green: 65
Kochia (Kochia scoparia); [13]
  Kochia plant response rating: 15
Kochia (Kochia scoparia); [14]
  Plant response rating, Kochia: 100
Kochia (Kochia scoparia); [15]
  Plant response rating, Kochia: 100
Kochia (Kochia scoparia); Preemergence, 31 g ai/ha
  Plant response rating (scale of 0 to 100), Kochia: 25
Kochia (Kochia scoparia); [16]
  Plant response rating, Kochia: 60
Kochia (Kochia scoparia); [17]
  Plant response rating, Kochia: 30
Kochia (Kochia scoparia); [18]
  Plant response rating, Kochia: 45
Kochia (Kochia scoparia); [19]
  Plant response rating, Kochia: 95
[7]; [13]
  Mustard, Wild plant response rating: 100
[7]; [14]
  Plant response rating, Mustard, Wild: 100
[7]; [15]
  Plant response rating, Mustard, Wild: 100
[7]; Preemergence, 31 g ai/ha
  Plant response rating (scale of 0 to 100), Mustard, Wild: 50
[7]; [16]
  Plant response rating, Mustard, Wild: 100
[7]; [17]
  Plant response rating, Mustard, Wild: 100
[7]; [18]
  Plant response rating, Mustard, Wild: 100
[7]; [19]
  Plant response rating, Mustard, Wild: 100
[8]; [13]
  Oat, Wild plant response rating: 75
[8]; [14]
  Plant response rating, Oat, Wild: 90
[8]; [15]
  Plant response rating, Oat, Wild: 90
[8]; Preemergence, 31 g ai/ha
  Plant response rating (scale of 0 to 100), Oat, Wild: 75
[8]; [16]
  Plant response rating, Oat, Wild: 75
[8]; [17]
  Plant response rating, Oat, Wild: 85
[8]; [18]
  Plant response rating, Oat, Wild: 95
[8]; [19]
  Plant response rating, Oat, Wild: 85
[9]; [13]
  Pigweed plant response rating: 100
[9]; [14]
  Plant response rating, Pigweed: 100
[9]; [15]
  Plant response rating, Pigweed: 100
[9]; Preemergence, 31 g ai/ha
  Plant response rating (scale of 0 to 100), Pigweed: 80
[9]; [16]
  Plant response rating, Pigweed: 100
[9]; [17]
  Plant response rating, Pigweed: 100
[9]; [18]
  Plant response rating, Pigweed: 100
[9]; [19]
  Plant response rating, Pigweed: 100
[10]; [13]
  Wheat, Spring plant response rating: 0
[10]; [14]
  Plant response rating, Wheat, Spring: 15
[10]; [15]
  Plant response rating, Wheat, Spring: 25
[10]; Preemergence, 31 g ai/ha
  Plant response rating (scale of 0 to 100), Wheat, Spring: 0
[10]; [16]
  Plant response rating, Wheat, Spring: 0
[10]; [17]
  Plant response rating, Wheat, Spring: 0
[10]; [18]
  Plant response rating, Wheat, Spring: 45
[10]; [19]
  Plant response rating, Wheat, Spring: 0
[11]; [13]
  Wheat, Winter plant response rating: 0
[11]; [14]
  Plant response rating, Wheat, Winter: 25
[11]; [15]
  Plant response rating, Wheat, Winter: 30
[11]; Preemergence, 31 g ai/ha
  Plant response rating (scale of 0 to 100), Wheat, Winter: 0
[11]; [16]
  Plant response rating, Wheat, Winter: 0
[11]; [17]
  Plant response rating, Wheat, Winter: 15
[11]; [18]
  Plant response rating, Wheat, Winter: 35
[11]; [19]
  Plant response rating, Wheat, Winter: 5
[12]; [13]
  Windgrass plant response rating: 35
[12]; [14]
  Plant response rating, Windgrass: 70
[12]; [15]
  Plant response rating, Windgrass: 75
[12]; Preemergence, 31 g ai/ha
  Plant response rating (scale of 0 to 100), Windgrass: 0
[12]; [16]
  Plant response rating, Windgrass: 50
[12]; [17]
  Plant response rating, Windgrass: 70
[12]; [18]
  Plant response rating, Windgrass: 95
[12]; [19]
  Plant response rating, Windgrass: 45
